From publication PMC10201669, “A novel coumarin derivative DBH2 inhibits proliferation and induces apoptosis of chronic myeloid leukemia cells” (Genes & Diseases, 2022)
Converted amounts (≈) assume the structure as drawn.

Legend:
[1] = test system: K562 cells; assay: CCK-8 cell viability assay, K562 cells; type: cell-based, human; settings: CCK-8, 48 h; for IC50: Homo sapiens, K562
Description: (§1) Human CML cell line K562 cells and human umbilical vein endothelial cells (HUVECs) were purchased from ATCC (Manassas, USA). Drug resistant K562 (K562R) cells were provided by the Chinese Academy of Medical Science Hematology Institute. The cells were cultured in RPMI-1640 medium containing 10% fetal bovine serum (FBS) in cell culture flasks under a humidified 5% CO2 and 95% air atmosphere at 37 °C. Bone marrow (BM) cells from mice or patients were cultured in DMEM/F12 medium supplemented with 20% FBS.
(§2) Cell viability was examined using the cell counting kit-8 (CCK-8) assay (YEASEN China). In brief, cells (1 × 10^4 cells/well) in confluent 96-well cell culture plates were treated with different concentrations of coumarin derivative (1, 5, 10, 25, 50, 100, 200, and 400 μg/mL) for 48 h. Then 10 μL CCK-8 reagents were added into every well for 2 h of incubation. Optical density (OD) was detected using the microplate reader (BioTek, Germany). The values were then fit into a non-linear regression curve and the IC50 was calculated using GraphPad Prism.

[2] = test system: K562R cells; assay: CCK-8 cell viability assay, drug resistant K562 cells; type: cell-based, human; settings: CCK-8, 48 h; for IC50: Homo sapiens, K-562R
Description: as §1, §2

[3] = test system: HUVECs; assay: CCK-8 cell viability assay (cytotoxicity), HUVECs; type: cell-based, human; settings: CCK-8, 48 h; for IC50: Homo sapiens, HUVEC
Description: as §1, §2

[4] = test system: CD34+ hematopoietic stem and progenitor cells (HSPCs); assay: CCK-8 cell viability assay (cytotoxicity), HSPCs; type: cell-based, human; settings: CCK-8, 48 h; for IC50: Homo sapiens
Excerpt: (§3) Human CD34^+ HSCPs were obtained from the specimens of consenting healthy donors or CML patients at Xijing Hospital, and purified using Human Whole Blood CD34 Positive Selection Kit II (StemCell Technologies, China). Briefly, the human bone marrow was homogenized, and the top layering with Ficoll-Paque (GE Healthcare, USA) interphase containing immune cells and CD34^+ HSPCs was collected and washed with PBS, then CD34^+ HSPCs were purified according to the protocol of EasySep human CD34 positive selection kit (StemCell Technologies, China). CD34^+ cells were cultured in StemSpan-ACF medium II supplemented with 50 ng/mL human stem cell factor, 10 ng/mL thrombopoietin, 20 ng/mL FMS-related tyrosine kinase 3 ligand, 20 ng/mL interleukin-6 and 1% penicillin-streptomycin solution.
as §2

[5] = test system: K562 cells; assay: Annexin V-FITC/PI flow cytometry, apoptosis of K562 cells; type: cell-based, human; settings: 50, 100, 200 μg/mL, 24 h, vs vehicle
Description: (§4) Apoptotic cells were quantified with an FITC Annexin V Apoptosis detection kit (Becton Dickinson Biosciences, USA) according to manufacturer’s protocol. Briefly, cells at 1 × 10^5 cells/mL were incubated with various concentrations (50, 100 and 200 μg/mL) of compound DBH2 for 24 h at 37 °C. Cells were harvested and re-suspended in the binding buffer, then stained with 5 μL Annexin V-FITC and 5 μL propidium iodide (PI) for 15 min at room temperature in the dark. The apoptotic index was immediately determined by FACSCalibur Flow Cytometer (Becton Dickinson Biosciences, CA). For the cell cycle, K562 cells were harvested and fixed in 75% ethanol overnight at 4 °C, then re-suspended in pre-cooling PBS containing 0.1 mg/mL RNase and 0.02 mg/mL PI for 30 min at 37 °C. After the treatment of compound DBH2 or 1% DMSO as vehicle control, the cell cycle was analyzed using the flow cytometry and Cell Quest software (BD Biosciences, USA).

[6] = test system: K562 cells; assay: Cell cycle distribution by flow cytometry, K562 cells; type: cell-based, human; settings: K562, 100 μg/mL; vehicle 33.9%
Description: as §4

[7] = test system: K562 cells; assay: Transmission electron microscopy of K562 cells; type: cell-based, human; settings: K562, 100 μg/mL, post 24 h
Description: CML cells were seeded and grown at […] in three flasks.

[8] = test system: bone marrow cells from SCL-tTA-BCR/ABL transgenic model mice; assay: Annexin V/PI apoptosis, bone marrow cells from SCL-tTA-BCR/ABL transgenic model mice; type: cell-based, mouse; settings: 50, 100, 200 μg/mL
Description: as §1
as §4, with “For the cell cycle, K562 cells were harvested and fixed in 75% ethanol overnight at 4 °C, then re-suspended in pre-cooling PBS containing 0.1 mg/mL RNase and 0.02 mg/mL PI for 30 min at 37 °C.” left out, “USA). […]” for “USA).”

[9] = test system: bone marrow cells of recipients (BCR/ABL model mice); assay: Annexin V/PI apoptosis, bone marrow cells of BMT recipients, DBH2 with or without imatinib; type: cell-based, mouse; settings: DBH2 at various concentrations with or without 1 μM imatinib
Description: (§5) The SCL-tTA-BCR/ABL transgenic model mice were used as donor, and sub-lethally irradiated (850 rad) wild type mice were use as receiver, once the bone marrow transplantation (BMT) was performed from the donor mice to the recipient mice, the CML-like model mice was established. […] Caspase-3 knock-out mice were kindly gifted from the lab of Professor Hua Han, the Fourth Military Medical University.

[10] = test system: CML-like model mice (recipients of SCL-tTA-BCR/ABL bone marrow); assay: Survival of CML-like model mice after bone marrow transplantation; type: in vivo, mouse; settings: DBH2 100 mg/kg, 32 days with two-day interval post-BMT, intragastric
Description: as §5

[11] = test system: bone marrow cells from CML patients; assay: Annexin V/PI apoptosis, bone marrow cells from CML patients; type: cell-based, human
Description: as §1
The ages of three male CML patients […], all of them were newly diagnosed chronic phase, and before starting TKI therapy. Informed consent was obtained from all participants. This study adhered to the World Medical Association’s Declaration of Helsinki and its amendments for Ethical Human Research including confidentiality, privacy, and data management.
Apoptotic cells were quantified with an FITC Annexin V Apoptosis detection kit (Becton Dickinson Biosciences, USA) according to manufacturer’s protocol. […] The apoptotic index was immediately determined by FACSCalibur Flow Cytometer (Becton Dickinson Biosciences, CA). […] After the treatment of compound DBH2 or 1% DMSO as vehicle control, the cell cycle was analyzed using the flow cytometry and Cell Quest software (BD Biosciences, USA).

[12] = test system: CD34+ LSCs from CML patients; assay: Apoptosis of CD34+ LSCs from CML patients; type: cell-based, human; settings: 100 μg/mL, 24 h
Excerpt: as §3
Apoptotic cells were quantified with an FITC Annexin V Apoptosis detection kit (Becton Dickinson Biosciences, USA) according to manufacturer’s protocol. Briefly, cells at 1 × 10^5 cells/mL were incubated with various concentrations (50, 100 and 200 μg/mL) of compound DBH2 for 24 h at 37 °C. […] The apoptotic index was immediately determined by FACSCalibur Flow Cytometer (Becton Dickinson Biosciences, CA). […] After the treatment of compound DBH2 or 1% DMSO as vehicle control, the cell cycle was analyzed using the flow cytometry and Cell Quest software (BD Biosciences, USA).

[13] = test system: STAT3; assay: Quantitative RT-PCR, STAT3 mRNA in K562 cells; type: cell-based, human; settings: K562, 50, 100, 200 μg/mL
Description: (§6) RNA was extracted from cells using an RNA extraction kit according to the manufacturer protocol. After reverse transcription, the real-time PCR was performed for three independent experiments with a 7300 real-time PCR system (Applied Biosystems, USA) using SYBR Premix ExTaq (Takara, China). The relative expression of genes was calculated by the 2^-△△Ct method, with normalization to GAPDH levels. Amplified products were visualized with an Alpha Imager 2200 digital imaging system (Alpha Innotech, USA). The primers (forward and backward) used were depicted in Table S1.

[14] = test system: STAT5; assay: Quantitative RT-PCR, STAT5 mRNA in K562 cells; type: cell-based, human; settings: K562, 50, 100, 200 μg/mL
Description: as §6

[15] = test system: bone marrow myeloid cells from wild type mice; assay: Annexin V/PI apoptosis, bone marrow myeloid cells from WT mice (Fig 5); type: cell-based, mouse; settings: WT, 50, 100, 200 μg/mL, 24 h
Description: as §4
(§7) The SCL-tTA-BCR/ABL transgenic model mice were used as donor, and sub-lethally irradiated (850 rad) wild type mice were use as receiver, once the bone marrow transplantation (BMT) was performed from the donor mice to the recipient mice, the CML-like model mice was established. After 8 weeks, the bone marrow reconstitution was confirmed, and the effect of treatments to the survival rates of recipient mice was observed. […]

[16] = test system: bone marrow myeloid cells from caspase-3 gene knock-out mice; assay: Annexin V/PI apoptosis, bone marrow myeloid cells from caspase-3 knock-out mice; type: cell-based, mouse
Description: as §4, §7

[17] = test system: PARP1; assay: Western blot, PARP1 protein in K562 cells; type: cell-based, human; settings: K562, 100 and 200 μg/mL, vs untreated control
Description: (§8) Cells were washed with Tris-buffered saline (TBS) and lysed by adding 100 μL of RIPA Lysis Buffer System containing protease inhibitors. Then, cell extraction was subjected to gel electrophoresis and transferred onto a polyvinylidene difluoride membrane (Millipore, Germany). After blocking with 3% BSA in TBS for 2 h, the membrane was probed with primary antibodies overnight at 4 °C, the antibody against PARP1 (Proteintech, USA) or ROCK1 proteins (Proteintech, USA) was diluted at 1:1000, and the antibody for GAPDH (Abcam, UK) was diluted at 1:1000. After secondary antibodies labeled with infrared dyes were added, the signals were visualized using the Odyssey Infrared Imaging System (Biosciences, USA).

[18] = test system: ROCK1; assay: Western blot, ROCK1 protein in K562 cells; type: cell-based, human; settings: K562, 50, 100, 200 μg/mL
Description: as §8

[19] = test system: human cervical cancer HeLa cells; parameters: method as in PMID 18210747; settings: G0/G1 arrest and apoptosis; cited from earlier work

Row | SMILES | IC50 [1] [µg/mL] | IC50 [2] [µg/mL] | IC50 [3] [µg/mL] | IC50 [4] [µg/mL] | other results
1 | O=c1oc2ccccc2c(O)c1C(c1ccccc1)c1c(O)c2ccccc2oc1=O [DBH1, 3,3′-benzylidene-bis-(4-hydroxycoumarin)] | 31.3 (≈ 75.8 µM) | 33.4 (≈ 81 µM) | 85.7 (≈ 208 µM) | 76.3 (≈ 185 µM) | –
2 | O=c1oc2ccccc2c(O)c1C(c1cc(F)cc(F)c1)c1c(O)c2ccccc2oc1=O [DBH2, 3,3′-(3,5-difluorobenzylidene)-bis-(4-hydroxycoumarin)] | 36.3 (≈ 81 µM) | 38.8 (≈ 86.5 µM) | 232 (≈ 518 µM) | 225 (≈ 502 µM) | apoptosis in CML cells (K562) [5]: trigger significant apoptosis in CML cells with concentration-dependent responses; percentage of cells in the G2/M phase [6]: 41.3%; morphological observation (TEM) [7]: typical apoptotic-body in nuclear appeared; apoptosis in bone marrow cells from CML model mice compared to WT mice [8]: induce the remarkable apoptosis; number of apoptotic cells [9]: ascendant number of apoptotic cells; survival of treated mice [10]: remarkably prolonged about two times; apoptosis of bone marrow cells from CML patients ([11]; 50, 100 and 200 μg/mL): promoted the apoptosis of bone marrow cells from CML patients in dose-dependent manner; induced apoptosis in bone marrow cells from CML patients compared to its effects on CD34+ LSC ([11]; bone marrow cells vs CD34+ LSC): almost twice fold; CD34+ LSCs developed into the apoptotic process [12]: more than twice fold; expression of STAT3 mRNA [13]: inhibit the expression of STAT3 and STAT5 in a dose-dependent manner; expression of STAT5 mRNA [14]: inhibit the expression of STAT3 and STAT5 in a dose-dependent manner; Annexin V positive cells [15]: increasing number of Annexin V positive cells; DBH2-induced apoptosis compared to the cells from wild type mice ([16]; caspase-3 knock-out vs WT): significant less; Annexin V positive cells ([16]; caspase-3 knock-out, 50, 100, 200 μg/mL, 24 h): increasing number of Annexin V positive cells; expression of PARP1 protein [17]: up-regulate the expression of PARP1 significantly; expression of ROCK1 protein [18]: up-regulated the expression of ROCK1 in dose-dependent manner
3 | O=c1oc2ccccc2c(O)c1C(c1cc(Cl)cc(Cl)c1)c1c(O)c2ccccc2oc1=O [DBH3, 3,3′-(3,5-dichlorobenzylidene)-bis-(4-hydroxycoumarin)] | 36.5 (≈ 75.8 µM) | 45.7 (≈ 95 µM) | 52.3 (≈ 109 µM) | 72.4 (≈ 150 µM) | –
4 | O=c1oc2ccccc2c(O)c1C(c1cc(Br)cc(Br)c1)c1c(O)c2ccccc2oc1=O [DBH4, 3,3′-(3,5-dibromobenzylidene)-bis-(4-hydroxycoumarin)] | 36.5 (≈ 64.1 µM) | 39.9 (≈ 69.9 µM) | 88.7 (≈ 155 µM) | 83.1 (≈ 146 µM) | –
5 | COc1cc(OC)cc(C(c2c(O)c3ccccc3oc2=O)c2c(O)c3ccccc3oc2=O)c1 [DBH5, 3,3′-(3,5-dimethoxybenzylidene)-bis-(4-hydroxycoumarin)] | 30.4 (≈ 64.5 µM) | 34.4 (≈ 72.7 µM) | 50.3 (≈ 106 µM) | 46.4 (≈ 98.2 µM) | –
6 | O=c1oc2ccccc2c(O)c1C(c1cc(C(F)(F)F)cc(C(F)(F)F)c1)c1c(O)c2ccccc2oc1=O [DBH6, 3,3′-(3,5-ditrifluoromethylbenzylidene)-bis-(4-hydroxycoum-arin)] | – | – | – | – | IC50, K562 cells [1]: 31.32 µg/mL (≈ 57.1 µM); IC50, K562 R cells [2]: 35.68 µg/mL (≈ 65.1 µM); IC50, HUVECs [3]: 72.42 µg/mL (≈ 132 µM); IC50, HSPCs [4]: 67.75 µg/mL (≈ 124 µM)
7 | COc1cccc2c1C(=O)c1c(O)c3c(c(O)c1C2=O)C[C@@](O)(C(=O)CO)C[C@@H]3O[C@H]1C[C@H](N)[C@H](O)[C@H](C)O1 [Doxorubicin, reference compound] | 16.4 (≈ 30.2 µM) | 24.1 (≈ 44.4 µM) | 8.76 (≈ 16.1 µM) | 8.04 (≈ 14.8 µM) | –
8 | O=c1ccc2ccccc2o1 [coumarin] | – | – | – | – | IC50 [19]: 54.2 µM
